Laboratory results reported in patent US9920012B2, “Indazole guanidine F1F0-ATPase inhibitors and therapeutic uses thereof” (Lycera Corporation, priority 2012, dated 2018).
Read-outs that look alike come from different tables or passages of the source.

Experiments:
F1F0-ATPase = target: T1, F1F0-ATPase (Bos taurus, UniProt P13621); test: Inhibition of F1F0-ATPase activity in synthesizing ATP; type: biochemical; settings: inhibition of ATP synthesis; detection limit IC50=16 μM; read-out: ATP Syn IC50
T1 construct: from tissue
Method: (§1) Exemplary compounds described in above Examples were tested for activity against F1F0-ATPase by measuring the ability of the compounds to inhibit ATP synthesis. In addition, the compounds were assessed for cytotoxicity in Ramos cells. Inhibition of F1F0-ATPase activity in synthesizing ATP and cytotoxicity in Ramos cells were measured according to the procedures described in K. M. Johnson et al. Chemistry & Biology 2005, 12, 485-496.

Ramos cells = test: Cytotoxicity in Ramos cells; type: cell-based; settings: detection limit EC50=16 μM, read-out: Ramos Cell EC50
Method: as §1

Structure (SMILES)	IC50 (F1F0-ATPase)	EC50 (Ramos cells; Homo sapiens)	EC50 (Ramos cells)
CC1(N/C(=N/C(=O)c2ccc(Cl)cc2)Nc2n[nH]c3ccccc23)CCC1 [Compound A-1]	< 5 µM	5 to 16 µM	–
CC(C)CN/C(=N/C(=O)c1ccc(N2CCOCC2)nc1)Nc1n[nH]c2cc(C(F)(F)F)ccc12 [Compound A-24]	< 5 µM	–	5 to 16 µM
CC(C)(C)NC(=NC(=O)c1ccc(F)c(F)c1)Nc1n[nH]c2cc(Cl)c(F)cc12 [Compound A-100]	< 5 µM	–	< 5 µM
CC(C)(C)N/C(=N/C(=O)c1ccc(Cl)c(F)c1)Nc1n[nH]c2cc(C(F)(F)F)ccc12 [Compound A-13]	< 5 µM	–	5 to 16 µM
COc1cc(F)c2c(NC(=NC(=O)c3ccc(F)c(F)c3)NC(C)(C)C)n[nH]c2c1 [Compound A-110]	< 5 µM	–	5 to 16 µM
CC(C)N/C(=N/C(=O)c1ccc(F)c(F)c1)Nc1n[nH]c2cc(C(F)(F)F)ccc12 [Compound A-10]	< 5 µM	–	< 5 µM
CC(C)(O)CN/C(=N/C(=O)c1ccc(F)c(F)c1)Nc1n[nH]c2cc(F)ccc12 [Compound A-83]	< 5 µM	–	< 5 µM
CC(C)N/C(=N/C(=O)c1cccc(F)c1)Nc1n[nH]c2ccc(C(F)(F)F)cc12 [Compound A-2]	< 5 µM	–	> 16 µM
CCOCCN/C(=N/C(=O)c1ccc(F)c(F)c1)Nc1n[nH]c2c(F)cccc12 [Compound A-75]	> 16 µM	–	> 16 µM
CC1(CN/C(=N/C(=O)c2ccc(F)c(F)c2)Nc2n[nH]c3ccccc23)COC1 [Compound A-39]	5 to 16 µM	–	> 16 µM
COC[C@H](C)N/C(=N/C(=O)c1ccc(F)c(F)c1)Nc1n[nH]c2ccccc12 [Compound A-37]	5 to 16 µM	–	> 16 µM
COC[C@H](C)N/C(=N/C(=O)c1cccc(O)c1)Nc1n[nH]c2cc(F)ccc12 [Compound A-93]	5 to 16 µM	–	5 to 16 µM
CCOCCCNC(=NC(=O)c1ccc(F)c(F)c1)Nc1n[nH]c2cc(C(F)(F)F)ccc12 [Compound A-11]	< 5 µM	–	< 5 µM
CC(C)(C)N/C(=N/C(=O)c1ccc(F)c(F)c1)Nc1n[nH]c2ccc(C(F)(F)F)cc12 [Compound A-50]	< 5 µM	–	< 5 µM
CC(C)CNC(=NC(=O)c1ccc(F)c(F)c1)Nc1n[nH]c2cc(Cl)c(F)cc12 [Compound A-101]	< 5 µM	–	< 5 µM
CCOCCN/C(=N/C(=O)c1ccc(Cl)cc1)Nc1n[nH]c2cc(F)ccc12 [Compound A-82]	< 5 µM	–	< 5 µM
COCC(C)NC(=NC(=O)c1cccc(Cl)c1)Nc1n[nH]c2cc(F)ccc12 (stereo not drawn) [Compound A-85]	< 5 µM	> 16 µM	–
COC[C@H](C)N/C(=N/C(=O)c1ccc(F)c(F)c1)Nc1n[nH]c2cc(F)ccc12 [Compound A-79]	< 5 µM	–	< 5 µM
CC(C)(C)CN/C(=N/C(=O)c1ccc(F)c(F)c1)Nc1n[nH]c2ccc(C(F)(F)F)cc12 [Compound A-52]	< 5 µM	–	< 5 µM
CC(C)CN/C(=N/C(=O)c1ccc(F)c(F)c1)Nc1n[nH]c2ccc(F)cc12 [Compound A-4]	< 5 µM	–	5 to 16 µM

Structure (SMILES)	IC50 (F1F0-ATPase)	EC50 (Ramos cells; Homo sapiens)	EC50 (Ramos cells)
CC(C)(C)N/C(=N/C(=O)c1ccc(O)cc1)Nc1n[nH]c2cc(F)ccc12 [Compound A-92]	5 to 16 µM	–	< 5 µM
CC(C)(C)N/C(=N/C(=O)c1ccc(F)c(F)c1)Nc1n[nH]c2c(C(F)(F)F)cccc12 [Compound A-57]	> 16 µM	–	5 to 16 µM
CCOCCN/C(=N/C(=O)c1ccc(F)c(F)c1)Nc1n[nH]c2ccccc12 [Compound A-38]	> 16 µM	–	> 16 µM
CC(C)(C)N/C(=N/C(=O)c1ccc(F)c(F)c1)Nc1n[nH]c2cccnc12 [Compound A-45]	5 to 16 µM	–	> 16 µM
COC[C@H](C)N/C(=N/C(=O)c1ccc(F)c(F)c1)Nc1n[nH]c2cccnc12 [Compound A-48]	> 16 µM	–	> 16 µM
COC[C@H](C)N/C(=N/C(=O)c1ccc(Cl)c(F)c1)Nc1n[nH]c2cc(C(F)(F)F)ccc12 [Compound A-17]	< 5 µM	–	> 16 µM
CC(C)(C)N/C(=N/C(=O)c1ccc(F)c(F)c1)Nc1n[nH]c2ccccc12 [Compound A-34]	5 to 16 µM	–	5 to 16 µM
COC[C@H](C)N/C(=N/C(=O)c1ccc(F)c(F)c1)Nc1n[nH]c2c(F)cccc12 [Compound A-74]	5 to 16 µM	–	5 to 16 µM
O=C(/N=C(/Nc1cc(F)cc(Cl)c1)Nc1n[nH]c2ccc(F)cc12)c1ccc(F)c(F)c1 [Compound A-112]	< 5 µM	< 5 µM	–
CC(C)(C)N/C(=N/C(=O)c1ccc(N2CCOCC2)nc1)Nc1n[nH]c2cc(C(F)(F)F)ccc12 [Compound A-23]	< 5 µM	–	5 to 16 µM
CC(C)(C)N/C(=N/C(=O)c1ccc(F)c(F)c1)Nc1n[nH]c2cc(C(F)(F)F)ccc12 [Compound A-7]	> 16 µM	–	< 5 µM
COC[C@H](C)N/C(=N/C(=O)c1ccc(F)c(F)c1)Nc1n[nH]c2cc(C(F)(F)F)ccc12 [Compound A-88]	> 16 µM	–	< 5 µM
O=C(/N=C(/Nc1cc(F)cc(Cl)c1)Nc1n[nH]c2cccc(F)c12)c1ccc(F)c(F)c1 [Compound A-113]	> 16 µM	> 16 µM	–
CC(C)CN/C(=N/C(=O)c1ccc(F)c(F)c1)Nc1n[nH]c2cncc(Cl)c12 [Compound A-41]	< 5 µM	–	< 5 µM
CC(C)(C)NC(=NC(=O)c1cccc(Cl)c1)Nc1n[nH]c2cc(F)ccc12 [Compound A-97]	< 5 µM	–	< 5 µM
CC(C)(C)N/C(=N/C(=O)c1ccc(C(F)(F)F)cc1)Nc1n[nH]c2ncccc12 [Compound A-62]	> 16 µM	–	> 16 µM
CC(C)(C)N/C(=N/C(=O)c1cccc(O)c1)Nc1n[nH]c2cc(F)ccc12 [Compound A-96]	< 5 µM	–	< 5 µM
COC[C@H](C)N/C(=N/C(=O)c1ccc(Cl)cc1)Nc1n[nH]c2cc(C(F)(F)F)ccc12 [Compound A-66]	< 5 µM	–	< 5 µM
CC(C)(C)N/C(=N/C(=O)c1ccc(F)c(F)c1)Nc1n[nH]c2cncc(Cl)c12 [Compound A-40]	< 5 µM	–	< 5 µM
COCC(C)NC(=NC(=O)c1ccc(Cl)cc1)Nc1n[nH]c2cc(Cl)ccc12 (stereo not drawn) [Compound A-64]	< 5 µM	< 5 µM	–

Structure (SMILES)	IC50 (F1F0-ATPase)	EC50 (Ramos cells; Homo sapiens)	EC50 (Ramos cells)
O=C(/N=C(\Nc1n[nH]c2cc(C(F)(F)F)ccc12)NC1CCOCC1)c1ccc(Cl)c(F)c1 [Compound A-21]	< 5 µM	5 to 16 µM	–
CCOCCCN/C(=N/C(=O)c1ccc(Cl)c(F)c1)Nc1n[nH]c2cc(C(F)(F)F)ccc12 [Compound A-15]	< 5 µM	–	< 5 µM
CCC(C)N/C(=N/C(=O)c1ccc(F)c(F)c1)Nc1n[nH]c2cc(C(F)(F)F)ccc12 (stereo not drawn) [Compound A-9]	< 5 µM	–	< 5 µM
COCC(C)NC(=NC(=O)c1ccc(F)c(F)c1)Nc1n[nH]c2cncc(Cl)c12 (stereo not drawn) [Compound A-43]	> 16 µM	> 16 µM	–
CC(C)CNC(=NC(=O)c1ccc(F)c(F)c1)Nc1n[nH]c2c(F)cccc12 [Compound A-73]	5 to 16 µM	–	< 5 µM
O=C(/N=C(/Nc1cc(F)cc(Cl)c1)Nc1n[nH]c2ccccc12)c1ccc(Cl)cc1 [Compound A-111]	< 5 µM	5 to 16 µM	–
CC(C)CN/C(=N/C(=O)c1ccc(F)c(F)c1)Nc1n[nH]c2cccc(F)c12 [Compound A-6]	> 16 µM	–	> 16 µM
CCOCCCN/C(=N/C(=O)c1ccc(F)c(F)c1)Nc1n[nH]c2c(F)cccc12 [Compound A-77]	5 to 16 µM	–	< 5 µM
CC(C)CN/C(=N/C(=O)c1ccc(F)c(F)c1)Nc1n[nH]c2cc(C(F)(F)F)ccc12 [Compound A-8]	< 5 µM	–	< 5 µM
CC(C)CN/C(=N/C(=O)c1ccc(F)c(F)c1)Nc1n[nH]c2cc(Br)ccc12 [Compound A-68]	< 5 µM	–	< 5 µM
CC(C)(O)CN/C(=N/C(=O)c1ccc(Cl)cc1)Nc1n[nH]c2cc(F)ccc12 [Compound 2, 4-Chloro-N-((6-fluoro-1H-indazol-3-ylamino)((2-hydroxy-2-methylpropyl)amino)methylene)benzamide]	< 5 µM	> 16 µM	–
CC(C)CN/C(=N/C(=O)c1ccc(F)c(F)c1)Nc1n[nH]c2ccc(Br)cc12 [Compound A-67]	< 5 µM	–	< 5 µM
COCC(C)NC(=NC(=O)c1ccc(F)c(F)c1)Nc1n[nH]c2c(C(F)(F)F)cccc12 (stereo not drawn) [Compound A-59]	> 16 µM	> 16 µM	–
COC[C@H](C)N/C(=N/C(=O)c1ccc(F)c(F)c1)Nc1nn(C)c2cc(C(F)(F)F)ccc12 [Compound A-114]	> 16 µM	> 16 µM	–
CCOCCNC(=NC(=O)c1ccc(Cl)cc1)Nc1n[nH]c2cc(C(F)(F)F)ccc12 [Compound A-65]	< 5 µM	< 5 µM	–
COC[C@H](C)N/C(=N/C(=O)c1ccc(F)c(F)c1)Nc1n[nH]c2ccc(C(F)(F)F)cc12 [Compound A-53]	< 5 µM	–	> 16 µM
CC(C)CN/C(=N/C(=O)c1ccc(Cl)c(F)c1)Nc1n[nH]c2cc(C(F)(F)F)ccc12 [Compound A-14]	< 5 µM	–	< 5 µM
CCOCCN/C(=N/C(=O)c1ccc(F)c(F)c1)Nc1n[nH]c2cc(Cl)ccc12 [Compound A-61]	< 5 µM	–	< 5 µM
CC(C)N/C(=N/C(=O)c1ccc(F)c(F)c1)Nc1n[nH]c2c(F)cccc12 [Compound A-76]	< 5 µM	–	< 5 µM
CCOCCN/C(=N/C(=O)c1ccc(Cl)c(F)c1)Nc1n[nH]c2cc(C(F)(F)F)ccc12 [Compound A-20]	< 5 µM	–	> 16 µM
